# “And” between values parts separate entries of the source, which are not always exact repeats. Identical values can stand only once. Counter-ions that a name gives are not always drawn. Like-named read-outs stand apart in the source and are kept apart here.
# Tests used:
# [1] = Overnight / elevated RH stress of the crystalline salts; type: physicochemical; conditions: overnight / elevated relative humidity stress
# [2] = Systemic exposure and pharmacokinetics after single oral gavage dose of 200 mg/kg in fasted male SD rats; type: in vivo, Sprague Dawley (SD) rats; conditions: for Fold difference in plasma concentration compared to micronized free-base form: 30 hours post-dose; for Fold difference in plasma concentration compared to micronized free-base form / Increase of systemic drug exposure in AUC0-t compared with micro MBX-2982 (free base): male SD rats; for Increase of systemic drug exposure in AUC0-t compared with micro MBX-2982 (free base): equivalent amounts
# Protocol: Two studies were conducted in order to compare the systemic exposure and pharmacokinetics (PK) of microcrystalline MBX-2982 and salt forms of MBX-2982 in fasted male Sprague Dawley (SD) rats following single oral gavage (PO) doses of 200 mg/kg. Four salt foms of MBX-2982 were investigate in the studies. The tested salts were HCl Form I, HCl salt Form II, mesylate salt and the tosylate salt.
# Preparation of samples was performed by solvent precipitation of plasma proteins in a 1 mL/well 96-well plate. Standards were prepared by spiking 10 μL of blank plasma with 10 μL of standard solution (acetonitrile containing MBX-2982 at 0.01, 0.02, 0.05, 0.1, 0.2, 0.5, 1, 2, 5, 10, 20, 50 and 100 μg/mL) and 300 μL of 0.1% formic acid in acetonitrile containing 0.2 μg/mL internal standard. Plasma samples were prepared by adding 10 μL of plasma sample, 10 μL of acetonitrile, and 300 μL of 0.2 μg/mL internal standard in 0.1% formic acid in acetonitrile. After addition of the organic solvents, all samples were vortexed briefly and centrifuged at 3600 rpm for 10 minutes. Some of the samples were diluted 1.3 to 2-fold with blank plasma. An aliquot of the supernatant (25 μL) was transfer to a 1 mL/well 96-well plate and mixed with 200 μL water/ACN (50/50, v/v) and injected into the HPLC.
# The suspensions for microcrystalline MBX-2982 (free base) and salt forms of MBX-2982 were prepared in 1% carboxymethylcellulose and 2% tween 80 in water (w/w/v).
# Five groups of animals were given microcrystalline and salt forms suspension doses of MBX-2982 orally at 200 mg/kg, respectively. Food was withheld the night before dose and returned nine hours after dosing. Blood samples were collected at 0.25, 0.5, 1, 2, 4, 6, 9, 24, 30 and 48 h post dose. MBX-2982 plasma concentration from these samples was analyzed by a non-validated high performance liquid chromatography in conjunction with mass spectrometry (LC-MS/MS) method.
# Plasma concentration-time data for individual animals were analyzed using WinNonlin software (Professional, version 5.0.1; Pharsight Corp.). A non-compartmental model (model 200) was used. Peak area ratios of MBX-2982 to internal standard and concentration were fitted to a quadratic equation (Calibration Curve) with 1/x weighting using a quadratic regression program in Analyst version 1.4.2 (Applied Biosystem Inc). The equations were then used to interpolate the concentrations of MBX-2982 in samples from peak area to internal standard ratio.
# The following pharmacokinetic parameters were calculated: • 1) Cmax: Maximum (peak) plasma concentration • 2) Tmax: Time at which Cmax occurred • 3) t1/2: Terminal phase half-life • 4) AUC0-t: Area under the concentration-time curve from time 0 to last measurable concentration • 5) AUC0-inf: Area under the concentration-time curve from time 0 extrapolated to infinity
# [3] = PO 200 mg/kg, listed as HCl form II, hydrochloride
# [4] = fasted male SD rats, single PO dose 200 mg/kg, mean ± SD, hydrochloride
# [5] = 0.5 h post dose, fasted male SD rats, PO 200 mg/kg, mean ± SD
# [6] = 1 h post dose, fasted male SD rats, PO 200 mg/kg, mean ± SD
# [7] = 2 h post dose, fasted male SD rats, PO 200 mg/kg, mean ± SD
# [8] = 24 h post dose, fasted male SD rats, PO 200 mg/kg, mean ± SD
# [9] = 30 h post dose, fasted male SD rats, PO 200 mg/kg, mean ± SD
# [10] = 48 h post dose, fasted male SD rats, PO 200 mg/kg, mean ± SD
# [11] = fasted male SD rats, single PO dose 200 mg/kg, mean ± SD
smiles,measurement,setting,value
"CCc1cnc(N2CCC(c3nc(COc4ccc(-n5cnnn5)cc4)cs3)CC2)nc1 [HBr salt, 5-ethyl-2-{4-[4-(4-tetrazol-1-yl-phenoxymethyl)-thiazol-2-yl]-piperidin-1-yl}-pyrimidine]",Appearance of the material after RH stress,[1],remained a free flowing powder
"CCc1cnc(N2CCC(c3nc(COc4ccc(-n5cnnn5)cc4)cs3)CC2)nc1.Cl [HCl Salt Form II, 5-ethyl-2-{4-[4-(4-tetrazol-1-yl-phenoxymethyl)-thiazol-2-yl]-piperidin-1-yl}-pyrimidine hydrochloride]",Mean plasma concentration of MBX-2982,"[2]; 0.5 h post dose, fasted male SD rats, PO 200 mg/kg, mean ± SD, hydrochloride",8.06 ± 1.61 µg/mL
same,Mean plasma concentration of MBX-2982,"[2]; 1 h post dose, fasted male SD rats, PO 200 mg/kg, mean ± SD, hydrochloride",16.3 ± 2.77 µg/mL
same,Mean plasma concentration of MBX-2982,"[2]; 2 h post dose, fasted male SD rats, PO 200 mg/kg, mean ± SD, hydrochloride",23.7 ± 4.22 µg/mL
same,Mean plasma concentration of MBX-2982,"[2]; 4 h post dose, fasted male SD rats, PO 200 mg/kg, mean ± SD, hydrochloride",29.2 ± 3.71 µg/mL
same,Mean plasma concentration of MBX-2982,"[2]; 6 h post dose, fasted male SD rats, PO 200 mg/kg, mean ± SD, hydrochloride",29.1 ± 8.13 µg/mL
same,Mean plasma concentration of MBX-2982,"[2]; 9 h post dose, fasted male SD rats, PO 200 mg/kg, mean ± SD, hydrochloride",23.2 ± 5.70 µg/mL
same,Mean plasma concentration of MBX-2982,"[2]; 24 h post dose, fasted male SD rats, PO 200 mg/kg, mean ± SD, hydrochloride",12.02 ± 9.33 µg/mL
same,Mean plasma concentration of MBX-2982,"[2]; 24 h post dose, fasted male SD rats, PO 200 mg/kg, mean ± SD, listed as HCl form II, hydrochloride",12.02 µg/mL
same,Fold difference in plasma concentration compared to micronized free-base form,[2]; [3],186 fold
same,Mean plasma concentration of MBX-2982,"[2]; 30 h post dose, fasted male SD rats, PO 200 mg/kg, mean ± SD, hydrochloride",14.9 ± 13.2 µg/mL
same,Mean plasma concentration of MBX-2982,"[2]; 30 h post dose, fasted male SD rats, PO 200 mg/kg, mean ± SD, listed as HCl form II, hydrochloride",14.9 µg/mL
same,Mean plasma concentration of MBX-2982,"[2]; 48 h post dose, fasted male SD rats, PO 200 mg/kg, mean ± SD, hydrochloride",0.0325 µg/mL
same,AUC0-24,[2]; [4],482 ± 69.4 µg·h/mL
same,AUC0-inf,[2]; [4],469 µg·h/mL
same,AUC(0-t),[2]; [4],679 ± 208 µg·h/mL
same,Cmax,[2]; [4],31.8 ± 5.05 µg/mL
same,Tmax,[2]; [4],11.5 ± 12.4 h
same,t1/2,[2]; [4],2.09 h
same,Increase of systemic drug exposure in AUC0-t compared with micro MBX-2982 (free base),[2]; [3],2.9 fold
"CCc1cnc(N2CCC(c3nc(COc4ccc(-n5cnnn5)cc4)cs3)CC2)nc1 [MBX-2982, 5-ethyl-2-{4-[4-(4-tetrazol-1-yl-phenoxymethyl)-thiazol-2-yl]-piperidin-1-yl}-pyrimidine]",Mean plasma concentration of MBX-2982,[2]; [5],3.89 ± 0.95 µg/mL
same,Mean plasma concentration of MBX-2982,[2]; [6],6.70 ± 1.27 µg/mL
same,Mean plasma concentration of MBX-2982,[2]; [7],11.6 ± 1.61 µg/mL
same,Mean plasma concentration of MBX-2982,[2]; [8],0.26 µg/mL and 0.26 ± 0.28 µg/mL
same,Mean plasma concentration of MBX-2982,[2]; [9],0.08 µg/mL and 0.08 ± 0.06 µg/mL
same,Mean plasma concentration of MBX-2982,[2]; [10],0.16 ± 0.30 µg/mL
same,concentration at 4 h,"[2]; male, Sprague-Dawley, rat, plasma, po, 4 h post dose, fasted male SD rats, PO 200 mg/kg, mean ± SD, read-out: Mean plasma concentration of MBX-2982",15800 ± 3740 ng/mL
same,concentration at 6 h,"[2]; male, Sprague-Dawley, rat, plasma, po, 6 h post dose, fasted male SD rats, PO 200 mg/kg, mean ± SD, read-out: Mean plasma concentration of MBX-2982",15900 ± 4940 ng/mL
same,concentration at 9 h,"[2]; male, Sprague-Dawley, rat, plasma, po, 9 h post dose, fasted male SD rats, PO 200 mg/kg, mean ± SD, read-out: Mean plasma concentration of MBX-2982",15000 ± 5900 ng/mL
same,half-life,"[2]; male, Sprague-Dawley, rat, plasma, po, fasted male SD rats, single PO dose 200 mg/kg, mean ± SD",212 ± 42 min
same,AUC(0-t),"[2]; male, Sprague-Dawley, rat, plasma, po, fasted male SD rats, single PO dose 200 mg/kg, mean ± SD, read-out: AUC0-24",233 ± 64.8 µg·h/mL
same,AUC(0-t),"[2]; male, Sprague-Dawley, rat, plasma, po, fasted male SD rats, single PO dose 200 mg/kg, mean ± SD, read-out: AUC0-t",236 ± 64.6 µg·h/mL
same,Cmax,"[2]; male, Sprague-Dawley, rat, plasma, po, fasted male SD rats, single PO dose 200 mg/kg, mean ± SD, read-out: Cmax",17.4 ± 4.19 µg/mL
same,Tmax,"[2]; male, Sprague-Dawley, rat, plasma, po, fasted male SD rats, single PO dose 200 mg/kg, mean ± SD, read-out: Tmax",5.88 ± 1.55 h
"CCc1cnc(N2CCC(c3nc(COc4ccc(-n5cnnn5)cc4)cs3)CC2)nc1 [Mesylate Salt, 5-ethyl-2-{4-[4-(4-tetrazol-1-yl-phenoxymethyl)-thiazol-2-yl]-piperidin-1-yl}-pyrimidine]",Appearance of the material after RH stress,[1],remained a free flowing powder
same,Mean plasma concentration of MBX-2982,[2]; [5],8.52 ± 0.975 µg/mL
same,Mean plasma concentration of MBX-2982,[2]; [6],12.2 ± 0.839 µg/mL
same,Mean plasma concentration of MBX-2982,[2]; [7],18.8 ± 0.904 µg/mL
same,Mean plasma concentration of MBX-2982,"[2]; 4 h post dose, fasted male SD rats, PO 200 mg/kg, mean ± SD",26.7 ± 4.39 µg/mL
same,Mean plasma concentration of MBX-2982,"[2]; 6 h post dose, fasted male SD rats, PO 200 mg/kg, mean ± SD",21.8 ± 6.48 µg/mL
same,Mean plasma concentration of MBX-2982,"[2]; 9 h post dose, fasted male SD rats, PO 200 mg/kg, mean ± SD",18.0 ± 5.18 µg/mL
same,Mean plasma concentration of MBX-2982,[2]; [8],0.476 ± 0.344 µg/mL
same,Mean plasma concentration of MBX-2982,"[2]; 24 h post dose, fasted male SD rats, PO 200 mg/kg, mean ± SD, listed as mesylate",0.476 µg/mL
same,Fold difference in plasma concentration compared to micronized free-base form,[2]; PO 200 mg/kg,7 fold
same,Mean plasma concentration of MBX-2982,[2]; [9],0.574 ± 0.641 µg/mL
same,Mean plasma concentration of MBX-2982,"[2]; 30 h post dose, fasted male SD rats, PO 200 mg/kg, mean ± SD, listed as mesylate",0.574 µg/mL
same,Mean plasma concentration of MBX-2982,[2]; [10],0.082 ± 0.082 µg/mL
same,AUC0-24,[2]; [11],314 ± 65.7 µg·h/mL
same,AUC0-inf,[2]; [11],323 ± 62.0 µg·h/mL
same,AUC(0-t),[2]; [11],322 ± 63.6 µg·h/mL
same,Cmax,[2]; [11],26.7 ± 4.46 µg/mL
same,Tmax,[2]; [11],4.50 ± 1.00 h
same,t1/2,[2]; [11],4.11 ± 1.29 h
same,Increase of systemic drug exposure in AUC0-t compared with micro MBX-2982 (free base),[2]; PO 200 mg/kg,1.4 fold
"CCc1cnc(N2CCC(c3nc(COc4ccc(-n5cnnn5)cc4)cs3)CC2)nc1 [besylate salt, 5-ethyl-2-{4-[4-(4-tetrazol-1-yl-phenoxymethyl)-thiazol-2-yl]-piperidin-1-yl}-pyrimidine]",Appearance of the material after RH stress,[1],remained a free-flowing powder
"CCc1cnc(N2CCC(c3nc(COc4ccc(-n5cnnn5)cc4)cs3)CC2)nc1 [camsylate salt, 5-ethyl-2-{4-[4-(4-tetrazol-1-yl-phenoxymethyl)-thiazol-2-yl]-piperidin-1-yl}-pyrimidine]",Appearance of the material after RH stress,[1],remained a free flowing powder
"CCc1cnc(N2CCC(c3nc(COc4ccc(-n5cnnn5)cc4)cs3)CC2)nc1 [esylate salt, 5-ethyl-2-{4-[4-(4-tetrazol-1-yl-phenoxymethyl)-thiazol-2-yl]-piperidin-1-yl}-pyrimidine]",Appearance of the material after RH stress,[1],remained a free flowing powder
"CCc1cnc(N2CCC(c3nc(COc4ccc(-n5cnnn5)cc4)cs3)CC2)nc1 [sulfate salt, 5-ethyl-2-{4-[4-(4-tetrazol-1-yl-phenoxymethyl)-thiazol-2-yl]-piperidin-1-yl}-pyrimidine]",Appearance of the material after RH stress,[1],turned tacky
